Laboratory results: patent publication US12178838B2, “Synthetic neuromodulatory peptides” (Lactocore, Inc., priority 2019, dated 2024)

Columns and labels:
Type in all cases: in vivo
[1] = tested on: zebrafish (Danio rerio); assay: Open Field test in zebrafish; conditions: ip
Experimental: The tested substances were injected into the zebrafish intraperitoneally (ip) using an insulin syringe (0.5 ml, 30 g) 10 minutes before the test. The saline solution (0.9% NaCl) was used as a solvent. Anesthesia and immobilization of the animals were achieved by placing them in water at a temperature of 10° C. Control group fish received intraperitoneal injections of an equivalent volume of solvent, also after going through a pre-cooling procedure.
A base, back, and side walls of the aquarium were made of matte black plastic; the front panel (shorter wall) was made of transparent Plexiglas. The setup for the Light/Dark preference test consisted of three main parts: a launch compartment, a light compartment made of white plastic, and a dark compartment made of black plastic. The bright lighting in these tests was provided by a lamp on a stand (LED lamp PL, 11 W, light flux≈600 Lm, about 500 Lx directly above the water surface), which was attached to the upper part of the aquarium.
The open field test was performed as described in Maximino et al., 2013. A video recording (background shooting) was started 20-30 seconds before the zebrafish were placed in the test aquarium. The experimental zebrafish was placed in an open field (“OF”) aquarium using a net. The recording was being conducted for five minutes. The test was carried out using EthoVision XT software package (Noldus). The software registered the distance covered by the animal, its speed, the number of visits to the three conventional zones of the aquarium: “bottom,” “center,” and […] (lower, middle, and upper thirds of the aquarium, respectively), the time spent in these zones, and the latency of a visit to the middle and to the surface of the aquarium.

[2] = tested on: BALB/C mice; assay: Porsolt swim test (two-day modification) in mice; conditions: ip; Diazepam 0.75 mg/kg
Experimental: After an adaptation period, the test substance was intraperitoneally injected into mice. Behavioral parameters were measured in 30 minutes after injection. The tests were administered as follows: day 1—the Open field test, day 3—the Elevated plus maze test, day 5—the Marble burying test, days 12-13—the Porsolt swim (two-day modification) test.
In the Porsolt Swim test, two tests were conducted in two days. The installation is a transparent cylinder, 30 cm in height, 10 cm in diameter, filled with water (temperature about 21-23° C.) to the mark of 25 cm height. On the first day each animal was placed into the cylinder for 10 minutes. Behavioral parameters were not registered. On the second day, the animals were placed into the cylinder for 5 minutes. The following parameters were measured: duration of active (vigorous movements of all limbs) and passive (weak movements of hind limbs) swimming, as well as immobility (immobilization) (Porsolt et al. (1977) Behavioral despair in mice: a primary screening test for antidepressants. Arch Int Pharmacodyn Ther. 229(2):327-36). After each test, the mice were placed into a heated cell to dry.

[3] = tested on: Sprague Dawley rats; assay: Elevated Plus Maze in rats, intranasal FQSE; conditions: FQSE 0.5 mg/kg i.n.; diazepam 2 mg/kg IP
Experimental: The five doses of FQSE (SEQ ID NO:10) (0.01, 0.1, 0.5, 1 and 3 mg/kg, CS, Menlo Park, CA) were prepared fresh for each test day in sterile saline and administered intranasally (i.n.) 30 minutes prior to testing. Fifteen rats per group per peptide dose were tested with the exception that there were twenty rats in the vehicle (0) group. Each dose was administered in a randomized order across rats. Prior to dosing, the rats were lightly anesthetized (till loss of righting reflex) with isoflurane (2.5%, 0.5 L/min oxygen), placed in the recumbent position, then a thin plastic pipette (Fischer Scientific) inserted into the nares and peptide administered at a volume of 15-20 uL per nares. Individuals performing the behavioral tests were blind to drug treatment.
Rats were first allowed to acclimate to the testing room for 30 minutes while in their home cage. During testing, a rat was placed on the maze which consists of two open arms (45-cm long×10-cm wide), two closed arms (45-cm long×10-cm wide×30-cm high), and a middle compartment (4-cm long×4-cm wide) forming the shape of a plus located 50-cm above the floor, for 5-min. The test session was digitally recorded for later analyses (Ethovision, XT12). All testing was conducted under red lighting. An experimenter observed the rat during testing through a specialized observation window built into the door of the behavioral testing room. […]

[4] = tested on: Wistar rats after chronic unpredictable mild stress; assay: CUMS model: Novelty Suppressed Feeding Test
Experimental: During stress, the animals were placed in individual cells and exposed to stressful conditions each day for 26 days. Two stressors were used daily, applied in the following order: • Day 1. 10 am-6 pm, rats were placed in a cold room for an hour. From 6 PM to 10 am the lights were turned on and off every 2 hours. • Day 2. 10 am-6 pm, cage tilted to 45°. From 6 PM to 10 am water deprivation. • Day 3. 10 am-6 pm, stroboscopic light. From 6 PM to 10 am the light was left on overnight. • Day 4. 10 am-6 pm, wet bedding. From 6 PM to 10 am the animals were put in a small mouse cage. • Day 5. 10 am-6 pm, no bedding. From 6 PM to 10 am the lights were turned on and off every 2 hours. • Day 6. 10 am-6 pm, a new rat was placed in the cage (6-month-old). From 6 PM to 10 am the light was left on overnight. • Day 7. 10 am-6 pm, white noise. From 6 PM to 10 am a stroboscopic light was turned on at night. • Day 8-26. Repetition of previously used stressors in the specified sequence.
Experimental substances were administered daily starting from the 58-59 day of the experiment. The administration took place 30 minutes before the start of behavioral testing. On days when there were no tests, the substances were administered in the morning.
To assess anxiety and food motivation, a test for eating behavior in a new environment was used. […] The time to start eating and the duration of consumption were recorded. […]

Compound: CN1C(=O)CN=C(c2ccccc2)c2cc(Cl)ccc21 [Diazepam]
- distance covered during the open field test ([1]; diazepam 10 mg/kg): tended to cover a smaller distance
- average distance covered / track length (locomotor activity) ([1]; diazepam 1.25, 5, 10, fluvoxamine 5, 10, ACZ-10 0.6, BCM-7 5, FQSE 1 and 10, DKTE 1, WDQV 10 mg/kg): did not demonstrate any significant effects
- behavior in the open field test ([1]; diazepam 1.25 and 5 mg/kg): No effects
- tested parameters (duration of active and passive swimming, immobility time) [2]: did not lead to the changes in any tested parameter
- percent time on the open arm [3]: 10.8±1.11%
- result obtained in NSFT (11 administrations) ([4]; CUMS, FQSE 0.5 mg/kg, Diazepam): anxiolytic effect
- latency to start eating ([4]; FQSE 0.5 mg/kg i.n., diazepam 0.5 mg/kg i.p., 11 days): significant decrease in latency
